Measurements reported in article PMC7912928, “Anti-Infective and Antiviral Activity of Valinomycin and Its Analogues from a Sea Cucumber-Associated Bacterium, Streptomyces sp. SV 21” (Marine Drugs, 2021).
Values after ≈ are worked out from the molar mass of the structure shown.

Tests used:
[1] = test system: Mycobacterium smegmatis (ATCC 700084); assay: Antimicrobial microdilution assay (MIC); format: cell-based; conditions: microdilution in 96-well plates, seven 1:2 serial dilution steps, Mueller–Hinton bouillon, start OD548 0.1, 30 °C, 160 rpm overnight
Source text: (§1) The panel of test microorganisms consisted of the following multi drug-resistant (MDR) bacteria: Gram-negative Escherichia coli (DSM 1116) and Pseudomonas aeruginosa (PA16); Gram-positive Bacillus subtilis (DSM 10), Staphylococcus aureus (DSM 346), and Mycobacterium smegmatis (ATCC 7000048); yeasts Candida albicans (DSM 1665) and Rhodotorula glutinis (DSM 10134); and filamentous fungi Mucor hiemalis (DSM 2656). The positive controls were nystatin, oxytetracyclin, kanamycin, and gentamycin, with a concentration of 1 mg/mL. Compounds 1–4 were prepared in a concentration of 1 mg/mL MeOH. The activity of the samples was observed by using the microdilution technique in 96 well plates for tissue cultures (TPP). As much as 20 µL of the MeOH solution of each compound (1 mg/mL) was mixed with 300 µL of bacterial or fungal suspension, except for the positive controls where 2 µL of either oxytetracycline, kanamycin, and gentamycin in 300 µL of bacterial suspension was used. The samples were tested in seven 1:2 serial dilution steps (concentrations A to H) in 96-well plates. Bacteria were cultivated in Mueller–Hinton bouillon (Roth) and fungi/yeasts in MYC medium (1.0% phytone peptone, 1.0% glucose, and 1.19% HEPES, pH 7.0). Start OD600 was 0.01 for B. subtilis, E. coli, and S. aureus; start OD548 was 0.1 for M. hiemalis, C. albicans, R. glutinis, M. smegmatis, and P. aeruginosa. The test organisms were cultivated at 30 °C and 160 rpm overnight.

[2] = test system: Candida albicans (DSM 1665); assay: Antimicrobial microdilution assay (MIC); format: cell-based; conditions: microdilution in 96-well plates, seven 1:2 serial dilution steps, MYC medium pH 7.0, start OD548 0.1, 30 °C, 160 rpm overnight
Source text: as §1

[3] = test system: Mucor hiemalis (DSM 2656); format: cell-based; conditions: for MIC, Fungi, Mh: Mucor hiemalis (DSM 2656), microdilution in 96-well plates, seven 1:2 serial dilution steps, MYC medium pH 7.0, start OD548 0.1, 30 °C, 160 rpm overnight
Source text: as §1

[4] = test system: Rhodoturula glutinis (DSM 10134); format: cell-based; conditions: for MIC, Fungi, Rg: Rhodoturula glutinis (DSM 10134), microdilution in 96-well plates, seven 1:2 serial dilution steps, MYC medium pH 7.0, start OD548 0.1, 30 °C, 160 rpm overnight
Source text: as §1

[5] = test system: Eschericia coli (DSM 1116); assay: Antimicrobial microdilution assay (MIC); format: cell-based, Escherichia coli; conditions: seven 1:2 serial dilution steps, Mueller–Hinton bouillon, start OD600 0.01, 30 °C, 160 rpm overnight; for MIC, Gram-Negative, Ec: microdilution in 96-well plates
Source text: as §1

[6] = test system: Bacillus subtilis (DSM 10); assay: microbe, parasite or virus in culture; format: cell-based; conditions: seven 1:2 serial dilution steps, Mueller–Hinton bouillon, start OD600 0.01, 30 °C, 160 rpm overnight
Source text: as §1

[7] = test system: Staphylococcus aureus (DSM 346); assay: microbe, parasite or virus in culture; format: cell-based; conditions: seven 1:2 serial dilution steps, Mueller–Hinton bouillon, start OD600 0.01, 30 °C, 160 rpm overnight; for MIC, Gram-Positive, Sa: microdilution in 96-well plates
Source text: as §1

[8] = test system: Hepatitis C Virus (HCV), Jc1-derived Renilla reporter viruses in Huh7.5 Fluc cells; assay: Inhibitory effects on Hepatitis C Virus (HCV) infectivity; format: cell-based; conditions: 10 µg/mL, Huh7.5 Fluc cells infected with Jc1-derived Renilla reporter viruses, Renilla luciferase read-out, compared to positive control EGCG, Figure 4A
Description: (§2) The anti-HCV assay was performed as mentioned in [5]. In brief, Huh7.5 cells stably expressing Firefly luciferase (Huh7.5 Fluc) were cultured in Dulbecco’s modified minimum essential medium (DMEM, Gibco, Thermo Fisher Scientific, Schwerte, Germany) and maintained in a 37 °C environment with 5% CO2 supply. Samples were added to the cells, and then the cells were infected with Jc1-derived Renilla reporter viruses. Compounds and the positive control (Epigallocatechin gallate, EGCG) were tested at a concentration of 10 µg/mL. Renilla and Firefly luciferase activities from the infected cells were measured on a Berthold Technologies Centro XS3 Microplate Luminometer (Bad Wildbad, Germany) as indicators of viral genome replication and cell viability, respectively.

[9] = test system: Huh7.5 cells; assay: Viability of Huh7.5 cells (Firefly luciferase) in the anti-HCV assay; format: cell-based; conditions: 10 µg/mL; Firefly luciferase read-out; compared to positive control EGCG; Figure 4B
Description: as §2

[10] = test system: Bacillus subtilis (Bs); conditions: pH values from 5.5 to 9.5; cited from earlier work
Source text: Previous studies had also shown antifungal activity of valinomycin against the plant pathoge ...

[11] = test system: Pseudomonas aeruginosa (PA14); assay: Antimicrobial microdilution assay (MIC); format: cell-based; conditions: microdilution in 96-well plates, seven 1:2 serial dilution steps, Mueller–Hinton bouillon, start OD548 0.1, 30 °C, 160 rpm overnight
Source text: as §1

Row | Compound | MIC, Fungi, Mh [3] [µg/mL] | MIC, Fungi, Rg [4] [µg/mL] | MIC, Gram-Negative, Ec [5] | Activity against HCV infectivity (HCV-infected hepatoma cells), in words [8] | Viability of Huh7.5 cells after exposure to the test compounds, in words [9] | other results
1 | NC[C@H]1O[C@H](O[C@H]2[C@H](O)[C@@H](O[C@H]3O[C@H](CO)[C@@H](O)[C@H](N)[C@H]3O)[C@H](N)C[C@@H]2N)[C@H](O)[C@@H](O)[C@@H]1O [Kanamycin] |  |  |  |  |  | MIC, Gram-Positive, Ms [1]: 3.3 µg/mL (≈ 6.81 µM)
2 | C[C@@H]1[C@H](O)[C@@H](C)/C=C/C=C/CC/C=C/C=C/C=C/C=C/C(O[C@H]2O[C@H](C)[C@@H](O)[C@H](N)[C@@H]2O)CC2O[C@](O)(CC(O)C(O)CCC(O)CC(O)CC(O)CC(=O)O[C@H]1C)CC(O)C2C(=O)O (stereo partly drawn) [Nystatin, reference compound] | 16.6 (≈ 17.9 µM) | 4.2 (≈ 4.54 µM) |  |  |  | MIC, Fungi, Ca [2]: 33.3 µg/mL (≈ 36 µM)
3 | CN(C)[C@@H]1C(O)=C(C(N)=O)C(=O)[C@@]2(O)C(O)=C3C(=O)c4c(O)cccc4[C@@](C)(O)[C@H]3[C@H](O)[C@@H]12 [Oxytetracycline, reference compound] |  |  |  |  |  | MIC ([5]; Escherichia coli, DSM1116, microdilution in 96-well plates, read-out: MIC, Gram-Negative, Ec): 1.7 µg/mL (≈ 3.69 µM); MIC ([6]; DSM10, microdilution in 96-well plates, read-out: MIC, Gram-Positive, Bs): 8.3 µg/mL (≈ 18 µM); MIC ([7]; DSM346, microdilution in 96-well plates, read-out: MIC, Gram-Positive, Sa): 0.2 µg/mL (≈ 0.434 µM)
4 | CC[C@H]1OC(=O)[C@H](C(C)C)NC(=O)[C@H](C)OC(=O)[C@@H](C(C)C)NC(=O)[C@@H](C(C)C)OC(=O)[C@H](C(C)C)NC(=O)[C@H](C)OC(=O)[C@@H](C(C)C)NC(=O)[C@@H](C(C)C)OC(=O)[C@H](C(C)C)NC(=O)[C@H](C)OC(=O)[C@@H](C(C)C)NC1=O [Streptodepsipeptide P11A (2), Streptodepsipeptide P11A] | 8.3 (≈ 7.56 µM) | 8.3 (≈ 7.56 µM) | - | potent antiviral activity | lower than for the positive control | 
5 | CC(C)[C@@H]1NC(=O)[C@H](C)OC(=O)[C@@H](C(C)C)NC(=O)[C@@H](C(C)C)OC(=O)[C@H](C(C)C)NC(=O)[C@H](C)OC(=O)[C@@H](C(C)C)NC(=O)[C@@H](C(C)C)OC(=O)[C@H](C(C)C)NC(=O)[C@H](C)OC(=O)[C@@H](C(C)C)NC(=O)[C@H](C)OC1=O [Streptodepsipeptide P11B (1), Streptodepsipeptide P11B] | 16.6 (≈ 15.3 µM) | 33.3 (≈ 30.7 µM) | - | significantly less affected the HCV |  | 
6 | CCC(C)[C@H]1OC(=O)[C@H](C(C)C)NC(=O)[C@H](C)OC(=O)[C@@H](C(C)C)NC(=O)[C@@H](C(C)C)OC(=O)[C@H](C(C)C)NC(=O)[C@H](C)OC(=O)[C@@H](C(C)C)NC(=O)[C@@H](C(C)C)OC(=O)[C@H](C(C)C)NC(=O)[C@H](C)OC(=O)[C@@H](C(C)C)NC1=O (stereo partly drawn) [Streptodepsipeptide SV21 (4), Streptodepsipeptide SV21] | 16.6 (≈ 14.8 µM) | 16.6 (≈ 14.8 µM) | - |  | lower than for the positive control | Activity against HCV infectivity (HCV-infected hepatoma cells), in words ([8]; listed as 4): potent antiviral activity; MIC, Gram-Positive, Bs ([6]; microdilution in 96-well plates): 33.3 µg/mL (≈ 29.6 µM); MIC, Gram-Positive, Sa [7]: 16.6 µg/mL (≈ 14.8 µM)
7 | CC(C)[C@@H]1NC(=O)[C@H](C)OC(=O)[C@@H](C(C)C)NC(=O)[C@@H](C(C)C)OC(=O)[C@H](C(C)C)NC(=O)[C@H](C)OC(=O)[C@@H](C(C)C)NC(=O)[C@@H](C(C)C)OC(=O)[C@H](C(C)C)NC(=O)[C@H](C)OC(=O)[C@@H](C(C)C)NC(=O)[C@@H](C(C)C)OC1=O [Valinomycin (3), Valinomycin] | 2.1 (≈ 1.89 µM) | 4.2 (≈ 3.78 µM) | - | potent antiviral activity | lower than for the positive control | Antifungal strength relative to nystatin against Mh ([3]; comparison of MIC values, Mucor hiemalis): eight times stronger than nystatin; Antifungal strength relative to nystatin against Rg ([4]; comparison of MIC values, Rg): as strong as nystatin; Antibacterial activity against Bs as a function of pH, in words [10]: increase in antibacterial activity against Bs at higher pH values; MIC, Gram-Positive, Sa [7]: 4.2 µg/mL (≈ 3.78 µM)
8 | Gentamycin |  |  |  |  |  | MIC, Gram-Negative, Pa [11]: 0.4 µg/mL
